# From ChEMBL document CHEMBL4610025, “Discovery of a follistatin-derived myostatin inhibitory peptide” (Bioorg Med Chem Lett, 2020)
# Calls of active or inactive are those of the source. The rule behind the calls is not given here. Residues, ends and D or L forms follow the SMILES beside them.
# Target: Growth/differentiation factor 8 (Homo sapiens) (UniProt O14793)
# Assay: Inhibition of myostatin (unknown origin) expressed in HEK293 cells at 10 uM incubated for 4 hrs by dual luciferase reporter gene assay
# Format: cell-based
# Chain of Growth/differentiation factor 8 (Homo sapiens) (O14793 267-375 limits assumed): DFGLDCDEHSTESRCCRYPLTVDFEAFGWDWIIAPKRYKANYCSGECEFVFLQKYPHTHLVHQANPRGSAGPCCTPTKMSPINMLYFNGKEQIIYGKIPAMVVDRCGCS
row,SMILES,inhibition
1,CC[C@H](C)[C@H](NC(=O)[C@H](CCSC)NC(=O)[C@H](Cc1c[nH]c2ccccc12)NC(=O)[C@H](CCCCN)NC(=O)[C@H](Cc1ccccc1)NC(=O)[C@H](CC(C)C)NC(=O)[C@@H](NC(=O)[C@H](CC(N)=O)NC(=O)[C@H](CC(=O)O)NC(=O)[C@H](CC(N)=O)NC(=O)[C@@H](N)C(C)C)[C@@H](C)O)C(=O)N[C@@H](Cc1ccccc1)C(=O)N[C@@H](C)C(=O)NCC(N)=O (H-VNDNTLFKWMIFAG-NH2),inactive
2,CC[C@H](C)[C@H](NC(=O)[C@H](CCSC)NC(=O)[C@H](Cc1c[nH]c2ccccc12)NC(=O)[C@H](CCCCN)NC(=O)[C@H](Cc1ccccc1)NC(=O)[C@H](CC(C)C)NC(=O)[C@@H](NC(=O)[C@H](C)NC(=O)[C@H](CC(=O)O)NC(=O)[C@H](CC(N)=O)NC(=O)[C@@H](N)C(C)C)[C@@H](C)O)C(=O)N[C@@H](Cc1ccccc1)C(=O)N[C@@H](CC(N)=O)C(=O)NCC(N)=O (H-VNDATLFKWMIFNG-NH2),Active
3,CC[C@H](C)[C@H](NC(=O)[C@H](CCSC)NC(=O)[C@H](Cc1c[nH]c2ccccc12)NC(=O)[C@H](CCCCN)NC(=O)[C@H](Cc1ccccc1)NC(=O)[C@H](CC(C)C)NC(=O)[C@@H](NC(=O)[C@H](CC(N)=O)NC(=O)[C@H](CC(=O)O)NC(=O)[C@H](CC(N)=O)NC(=O)[C@@H](N)C(C)C)[C@@H](C)O)C(=O)N[C@@H](Cc1ccccc1)C(=O)N[C@@H](CC(N)=O)C(=O)N[C@@H](C)C(N)=O (H-VNDNTLFKWMIFNA-NH2),Active
4,CC[C@H](C)[C@H](NC(=O)[C@H](CCSC)NC(=O)[C@H](Cc1c[nH]c2ccccc12)NC(=O)[C@H](CCCCN)NC(=O)[C@H](Cc1ccccc1)NC(=O)[C@H](CC(C)C)NC(=O)[C@@H](NC(=O)[C@H](CC(N)=O)NC(=O)[C@H](CC(=O)O)NC(=O)[C@H](CC(N)=O)NC(=O)[C@@H](N)C(C)C)[C@@H](C)O)C(=O)N[C@@H](Cc1ccccc1)C(=O)N[C@@H](CC(N)=O)C(N)=O (H-VNDNTLFKWMIFN-NH2),inactive
5,CSCC[C@H](NC(=O)[C@H](Cc1c[nH]c2ccccc12)NC(=O)[C@H](CCCCN)NC(=O)[C@H](Cc1ccccc1)NC(=O)[C@H](CC(C)C)NC(=O)[C@@H](NC(=O)[C@H](CC(N)=O)NC(=O)[C@H](CC(=O)O)NC(=O)[C@H](CC(N)=O)NC(=O)[C@@H](N)C(C)C)[C@@H](C)O)C(=O)N[C@@H](C)C(=O)N[C@@H](Cc1ccccc1)C(=O)N[C@@H](CC(N)=O)C(=O)NCC(N)=O (H-VNDNTLFKWMAFNG-NH2),inactive
6,CC[C@H](C)[C@H](NC(=O)[C@H](CCSC)NC(=O)[C@H](Cc1c[nH]c2ccccc12)NC(=O)[C@H](C)NC(=O)[C@H](Cc1ccccc1)NC(=O)[C@H](CC(C)C)NC(=O)[C@@H](NC(=O)[C@H](CC(N)=O)NC(=O)[C@H](CC(=O)O)NC(=O)[C@H](CC(N)=O)NC(=O)[C@@H](N)C(C)C)[C@@H](C)O)C(=O)N[C@@H](Cc1ccccc1)C(=O)N[C@@H](CC(N)=O)C(=O)NCC(N)=O (H-VNDNTLFAWMIFNG-NH2),inactive
7,CC[C@H](C)[C@H](NC(=O)[C@H](CCSC)NC(=O)[C@H](Cc1c[nH]c2ccccc12)NC(=O)[C@H](CCCCN)NC(=O)[C@H](Cc1ccccc1)NC(=O)[C@H](CC(C)C)NC(=O)[C@@H](NC(=O)[C@H](CC(N)=O)NC(=O)[C@H](CC(=O)O)NC(=O)[C@H](CC(N)=O)NC(=O)[C@@H](NC(=O)[C@H](CC(=O)O)NC(=O)[C@H](CCC(=O)O)NC(=O)[C@@H](N)CCC(=O)O)C(C)C)[C@@H](C)O)C(=O)N[C@@H](Cc1ccccc1)C(=O)N[C@@H](CC(N)=O)C(=O)NCC(N)=O (H-EEDVNDNTLFKWMIFNG-NH2),inactive
8,CC[C@H](C)[C@H](NC(=O)[C@H](CCSC)NC(=O)[C@H](Cc1c[nH]c2ccccc12)NC(=O)[C@H](CCCCN)NC(=O)[C@H](Cc1ccccc1)NC(=O)[C@H](CC(C)C)NC(=O)[C@@H](NC(=O)[C@H](CC(N)=O)NC(=O)[C@H](CC(=O)O)NC(=O)[C@H](CC(N)=O)NC(=O)[C@@H](NC(=O)[C@H](CC(=O)O)NC(=O)[C@H](CCC(=O)O)NC(=O)[C@H](CCC(=O)O)NC(=O)[C@@H](NC(=O)[C@@H](N)Cc1c[nH]c2ccccc12)[C@@H](C)O)C(C)C)[C@@H](C)O)C(=O)N[C@@H](Cc1ccccc1)C(=O)N[C@@H](CC(N)=O)C(=O)NCC(N)=O (H-WTEEDVNDNTLFKWMIFNG-NH2),inactive
9,CC[C@H](C)[C@H](NC(=O)[C@H](C)NC(=O)[C@H](Cc1c[nH]c2ccccc12)NC(=O)[C@H](CCCCN)NC(=O)[C@H](Cc1ccccc1)NC(=O)[C@H](CC(C)C)NC(=O)[C@@H](NC(=O)[C@H](CC(N)=O)NC(=O)[C@H](CC(=O)O)NC(=O)[C@H](CC(N)=O)NC(=O)[C@@H](N)C(C)C)[C@@H](C)O)C(=O)N[C@@H](Cc1ccccc1)C(=O)N[C@@H](CC(N)=O)C(=O)NCC(N)=O (H-VNDNTLFKWAIFNG-NH2),inactive
10,CC[C@H](C)[C@H](NC(=O)[C@H](CCSC)NC(=O)[C@H](Cc1c[nH]c2ccccc12)NC(=O)[C@H](CCCCN)NC(=O)[C@H](Cc1ccccc1)NC(=O)[C@H](CC(C)C)NC(=O)[C@@H](NC(=O)[C@H](CC(N)=O)NC(=O)[C@H](CC(=O)O)NC(=O)[C@@H](N)CC(N)=O)[C@@H](C)O)C(=O)N[C@@H](Cc1ccccc1)C(=O)N[C@@H](CC(N)=O)C(=O)NCC(N)=O (H-NDNTLFKWMIFNG-NH2),inactive
11,CC[C@H](C)[C@H](NC(=O)[C@H](CCSC)NC(=O)[C@H](Cc1c[nH]c2ccccc12)NC(=O)[C@H](CCCCN)NC(=O)[C@H](Cc1ccccc1)NC(=O)[C@H](CC(C)C)NC(=O)[C@H](C)NC(=O)[C@H](CC(N)=O)NC(=O)[C@H](CC(=O)O)NC(=O)[C@H](CC(N)=O)NC(=O)[C@@H](N)C(C)C)C(=O)N[C@@H](Cc1ccccc1)C(=O)N[C@@H](CC(N)=O)C(=O)NCC(N)=O (H-VNDNALFKWMIFNG-NH2),inactive
12,CC[C@H](C)[C@H](NC(=O)[C@H](CCSC)NC(=O)[C@H](Cc1c[nH]c2ccccc12)NC(=O)[C@H](CCCCN)NC(=O)[C@H](Cc1ccccc1)NC(=O)[C@H](CC(C)C)NC(=O)[C@@H](NC(=O)[C@H](CC(N)=O)NC(=O)[C@H](CC(=O)O)NC(=O)[C@@H](N)CC(N)=O)[C@@H](C)O)C(=O)N[C@@H](Cc1ccccc1)C(=O)N[C@@H](CC(N)=O)C(N)=O (H-NDNTLFKWMIFN-NH2),Active
13,CC[C@H](C)[C@H](NC(=O)[C@H](CCSC)NC(=O)[C@H](Cc1c[nH]c2ccccc12)NC(=O)[C@H](CCCCN)NC(=O)[C@H](Cc1ccccc1)NC(=O)[C@H](CC(C)C)NC(=O)[C@@H](NC(=O)[C@H](CC(N)=O)NC(=O)[C@H](CC(=O)O)NC(=O)[C@H](CC(N)=O)NC(=O)[C@H](C)N)[C@@H](C)O)C(=O)N[C@@H](Cc1ccccc1)C(=O)N[C@@H](CC(N)=O)C(=O)NCC(N)=O (H-ANDNTLFKWMIFNG-NH2),inactive

# Second part, the compound after the results:
row,inhibition,SMILES
1,inactive,CC[C@H](C)[C@H](NC(=O)[C@H](CCSC)NC(=O)[C@H](Cc1c[nH]c2ccccc12)NC(=O)[C@H](CCCCN)NC(=O)[C@H](Cc1ccccc1)NC(=O)[C@H](CC(C)C)NC(=O)[C@@H](NC(=O)[C@H](CC(N)=O)NC(=O)[C@H](CC(=O)O)NC(=O)[C@H](C)NC(=O)[C@@H](N)C(C)C)[C@@H](C)O)C(=O)N[C@@H](Cc1ccccc1)C(=O)N[C@@H](CC(N)=O)C(=O)NCC(N)=O (H-VADNTLFKWMIFNG-NH2)
2,inactive,CC[C@H](C)[C@H](NC(=O)[C@H](CCSC)NC(=O)[C@H](C)NC(=O)[C@H](CCCCN)NC(=O)[C@H](Cc1ccccc1)NC(=O)[C@H](CC(C)C)NC(=O)[C@@H](NC(=O)[C@H](CC(N)=O)NC(=O)[C@H](CC(=O)O)NC(=O)[C@H](CC(N)=O)NC(=O)[C@@H](N)C(C)C)[C@@H](C)O)C(=O)N[C@@H](Cc1ccccc1)C(=O)N[C@@H](CC(N)=O)C(=O)NCC(N)=O (H-VNDNTLFKAMIFNG-NH2)
3,inactive,CC[C@H](C)[C@H](NC(=O)[C@H](CCSC)NC(=O)[C@H](Cc1c[nH]c2ccccc12)NC(=O)[C@H](CCCCN)NC(=O)[C@H](Cc1ccccc1)NC(=O)[C@H](CC(C)C)NC(=O)[C@@H](NC(=O)[C@H](CC(N)=O)NC(=O)[C@H](CC(=O)O)NC(=O)[C@H](CC(N)=O)NC(=O)[C@@H](N)C(C)C)[C@@H](C)O)C(=O)N[C@@H](C)C(=O)N[C@@H](CC(N)=O)C(=O)NCC(N)=O (H-VNDNTLFKWMIANG-NH2)
4,inactive,CC[C@H](C)[C@H](NC(=O)[C@H](CCSC)NC(=O)[C@H](Cc1c[nH]c2ccccc12)NC(=O)[C@H](CCCCN)NC(=O)[C@H](C)NC(=O)[C@H](CC(C)C)NC(=O)[C@@H](NC(=O)[C@H](CC(N)=O)NC(=O)[C@H](CC(=O)O)NC(=O)[C@H](CC(N)=O)NC(=O)[C@@H](N)C(C)C)[C@@H](C)O)C(=O)N[C@@H](Cc1ccccc1)C(=O)N[C@@H](CC(N)=O)C(=O)NCC(N)=O (H-VNDNTLAKWMIFNG-NH2)
5,inactive,CC[C@H](C)[C@H](NC(=O)[C@H](CCSC)NC(=O)[C@H](Cc1c[nH]c2ccccc12)NC(=O)[C@H](CCCCN)NC(=O)[C@H](Cc1ccccc1)NC(=O)[C@H](C)NC(=O)[C@@H](NC(=O)[C@H](CC(N)=O)NC(=O)[C@H](CC(=O)O)NC(=O)[C@H](CC(N)=O)NC(=O)[C@@H](N)C(C)C)[C@@H](C)O)C(=O)N[C@@H](Cc1ccccc1)C(=O)N[C@@H](CC(N)=O)C(=O)NCC(N)=O (H-VNDNTAFKWMIFNG-NH2)
6,Active,CC[C@H](C)[C@H](NC(=O)[C@H](CCSC)NC(=O)[C@H](Cc1c[nH]c2ccccc12)NC(=O)[C@H](CCCCN)NC(=O)[C@H](Cc1ccccc1)NC(=O)[C@H](CC(C)C)NC(=O)[C@@H](NC(=O)[C@H](CC(N)=O)NC(=O)[C@H](C)NC(=O)[C@H](CC(N)=O)NC(=O)[C@@H](N)C(C)C)[C@@H](C)O)C(=O)N[C@@H](Cc1ccccc1)C(=O)N[C@@H](CC(N)=O)C(=O)NCC(N)=O (H-VNANTLFKWMIFNG-NH2)
